According to ChEMBL document CHEMBL3885881, “DrugMatrix”:

Species on record: Rattus norvegicus
Assay: DrugMatrix - Regimen: Daily Repeat
Format: toxicity, organism-based, Sprague-Dawley
Parameters: regimen Daily Repeat, gender Male, age 6-8 weeks
Details: in vivo, iv, vehicle 100 % SALINE; for ABSOLUTE BASOPHIL / ABSOLUTE EOSINOPHIL / ABSOLUTE LYMPHOCYTE / ABSOLUTE MONOCYTE / ABSOLUTE SEGMENTED NEUTROPHIL / BASOPHIL / EOSINOPHIL / ERYTHROCYTE COUNT / HEMATOCRIT / HEMOGLOBIN / LEUKOCYTE COUNT / LYMPHOCYTE / MEAN CORPUSCULAR HEMOGLOBIN / MEAN CORPUSCULAR HEMOGLOBIN CONCENTRATION / MEAN CORPUSCULAR VOLUME / MONOCYTE / NEUTROPHIL / NUCLEATED RED BLOOD CELLS / PLATELET COUNT: tissue Blood; for ALANINE AMINOTRANSFERASE / ALBUMIN / ALKALINE PHOSPHATASE / ASPARTATE AMINOTRANSFERASE / BLOOD UREA NITROGEN / CARBON DIOXIDE / CHLORIDE / CHOLESTEROL / CREATINE PHOSPHOKINASE / CREATININE / GLUCOSE / LACTATE DEHYDROGENASE / LIPASE / PHOSPHORUS / POTASSIUM / SODIUM / TOTAL BILIRUBIN / TOTAL PROTEIN / URIC ACID: tissue Plasma
[1] = 3 mg/kg, 120 h, dose level Low, time 5 day
[2] = 54 mg/kg, 72 h, dose level High, time 3 day
[3] = 54 mg/kg, 120 h, dose level High, time 5 day

O=c1[nH]c(=O)n([C@H]2C[C@H](O)[C@@H](CO)O2)cc1F [FLOXURIDINE]
ABSOLUTE BASOPHIL [1]: 0 CELLS/uL
ABSOLUTE EOSINOPHIL [1]: 0 CELLS/uL
ABSOLUTE LYMPHOCYTE [1]: 11533 CELLS/uL
ABSOLUTE MONOCYTE [1]: 174 CELLS/uL
ABSOLUTE SEGMENTED NEUTROPHIL [1]: 693 CELLS/uL
BASOPHIL [1]: 0%
EOSINOPHIL [1]: 0%
ERYTHROCYTE COUNT [1]: 5.61 x10E6/uL
HEMATOCRIT [1]: 34.57%
HEMOGLOBIN [1]: 13.83 G/DL
LEUKOCYTE COUNT [1]: 12.4 x10E3/uL
LYMPHOCYTE [1]: 93%
MEAN CORPUSCULAR HEMOGLOBIN [1]: 24.7 pg
MEAN CORPUSCULAR HEMOGLOBIN CONCENTRATION [1]: 40.03 G/DL
MEAN CORPUSCULAR VOLUME [1]: 61.73 fL
MONOCYTE [1]: 1.33%
NEUTROPHIL [1]: 5.67%
NUCLEATED RED BLOOD CELLS [1]: 0 /100WBC
PLATELET COUNT [1]: 883.33 x10E3/uL
ALANINE AMINOTRANSFERASE [1]: 53.33 u/L
ALBUMIN [1]: 4.33 G/DL
ALKALINE PHOSPHATASE [1]: 392.33 u/L
ASPARTATE AMINOTRANSFERASE [1]: 95.67 u/L
BLOOD UREA NITROGEN [1]: 18.67 mg/dL
CARBON DIOXIDE [1]: 26.33 mmol/L
CHLORIDE [1]: 102 MEQ/L
CHOLESTEROL [1]: 64.67 mg/dL
CREATINE PHOSPHOKINASE [1]: 328 u/L
CREATININE [1]: 0.28 mg/dL
GLUCOSE [1]: 167.33 mg/dL
LACTATE DEHYDROGENASE [1]: 433.67 u/L
LIPASE [1]: 10.33 u/L
PHOSPHORUS [1]: 11.63 mg/dL
POTASSIUM [1]: 6.75 MEQ/L
SODIUM [1]: 142.7 MEQ/L
TOTAL BILIRUBIN [1]: 0.23 mg/dL
TOTAL PROTEIN [1]: 5.93 G/DL
URIC ACID [1]: 1.83 mg/dL
ABSOLUTE BASOPHIL [2]: 0 CELLS/uL
ABSOLUTE EOSINOPHIL [2]: 0 CELLS/uL
ABSOLUTE LYMPHOCYTE [2]: 10754.33 CELLS/uL
ABSOLUTE MONOCYTE [2]: 75.67 CELLS/uL
ABSOLUTE SEGMENTED NEUTROPHIL [2]: 703.33 CELLS/uL
BASOPHIL [2]: 0%
EOSINOPHIL [2]: 0%
ERYTHROCYTE COUNT [2]: 5.48 x10E6/uL
HEMATOCRIT [2]: 33.43%
HEMOGLOBIN [2]: 13.3 G/DL
LEUKOCYTE COUNT [2]: 11.53 x10E3/uL
LYMPHOCYTE [2]: 93.33%
MEAN CORPUSCULAR HEMOGLOBIN [2]: 24.33 pg
MEAN CORPUSCULAR HEMOGLOBIN CONCENTRATION [2]: 39.83 G/DL
MEAN CORPUSCULAR VOLUME [2]: 61.17 fL
MONOCYTE [2]: 0.67%
NEUTROPHIL [2]: 6%
NUCLEATED RED BLOOD CELLS [2]: 0 /100WBC
PLATELET COUNT [2]: 1073.67 x10E3/uL
ALANINE AMINOTRANSFERASE [2]: 48.33 u/L
ALBUMIN [2]: 4.13 G/DL
ALKALINE PHOSPHATASE [2]: 268 u/L
ASPARTATE AMINOTRANSFERASE [2]: 81.67 u/L
BLOOD UREA NITROGEN [2]: 19 mg/dL
CARBON DIOXIDE [2]: 28.67 mmol/L
CHLORIDE [2]: 103.33 MEQ/L
CHOLESTEROL [2]: 68.33 mg/dL
CREATINE PHOSPHOKINASE [2]: 307.67 u/L
CREATININE [2]: 0.18 mg/dL
GLUCOSE [2]: 150.67 mg/dL
LACTATE DEHYDROGENASE [2]: 152.33 u/L
LIPASE [2]: 10.33 u/L
PHOSPHORUS [2]: 9.83 mg/dL
POTASSIUM [2]: 5.66 MEQ/L
SODIUM [2]: 141.27 MEQ/L
TOTAL BILIRUBIN [2]: 0.2 mg/dL
TOTAL PROTEIN [2]: 5.67 G/DL
URIC ACID [2]: 1.2 mg/dL
ABSOLUTE BASOPHIL [3]: 0 CELLS/uL
ABSOLUTE EOSINOPHIL [3]: 0 CELLS/uL
ABSOLUTE LYMPHOCYTE [3]: 10553 CELLS/uL
ABSOLUTE MONOCYTE [3]: 101.33 CELLS/uL
ABSOLUTE SEGMENTED NEUTROPHIL [3]: 445.67 CELLS/uL
BASOPHIL [3]: 0%
EOSINOPHIL [3]: 0%
ERYTHROCYTE COUNT [3]: 4.83 x10E6/uL
HEMATOCRIT [3]: 31%
HEMOGLOBIN [3]: 12.7 G/DL
LEUKOCYTE COUNT [3]: 11.1 x10E3/uL
LYMPHOCYTE [3]: 95%
MEAN CORPUSCULAR HEMOGLOBIN [3]: 26.57 pg
MEAN CORPUSCULAR HEMOGLOBIN CONCENTRATION [3]: 41.07 G/DL
MEAN CORPUSCULAR VOLUME [3]: 64.57 fL
MONOCYTE [3]: 1%
NEUTROPHIL [3]: 4%
NUCLEATED RED BLOOD CELLS [3]: 0 /100WBC
PLATELET COUNT [3]: 1207.33 x10E3/uL
ALANINE AMINOTRANSFERASE [3]: 45 u/L
ALBUMIN [3]: 4.17 G/DL
ALKALINE PHOSPHATASE [3]: 347 u/L
ASPARTATE AMINOTRANSFERASE [3]: 84 u/L
BLOOD UREA NITROGEN [3]: 17.67 mg/dL
CARBON DIOXIDE [3]: 26.67 mmol/L
CHLORIDE [3]: 102.33 MEQ/L
CHOLESTEROL [3]: 52.67 mg/dL
CREATINE PHOSPHOKINASE [3]: 429.33 u/L
CREATININE [3]: 0.12 mg/dL
GLUCOSE [3]: 154 mg/dL
LACTATE DEHYDROGENASE [3]: 306 u/L
LIPASE [3]: 9.33 u/L
PHOSPHORUS [3]: 9.83 mg/dL
POTASSIUM [3]: 5.61 MEQ/L
SODIUM [3]: 142.1 MEQ/L
TOTAL BILIRUBIN [3]: 0.17 mg/dL
TOTAL PROTEIN [3]: 5.53 G/DL
URIC ACID [3]: 1.5 mg/dL
